In patent US8637684B2, “Tautomycetin and tautomycetin analog biosynthesis” (Wisconsin Alumni Research Foundation, priority 2010, dated 2014):
Where two headings read alike, the source gives them in different places.

Experiments:
[1] = system: human primary T-cell tyrosine phosphorylation; conditions: Shim et al., 2002, cited from earlier work
SHP2 = biological target: T1, SHP2 (Homo sapiens, UniProt Q06124); experiment: Ki measurement, steady-state kinetic analysis of SHP2-catalyzed pNPP hydrolysis; format: biochemical
T1 construct: The expression and purification of the SHP2 catalytic domain (residues 262-528) were described previously; made in house
T1 sequence (Q06124 262-528): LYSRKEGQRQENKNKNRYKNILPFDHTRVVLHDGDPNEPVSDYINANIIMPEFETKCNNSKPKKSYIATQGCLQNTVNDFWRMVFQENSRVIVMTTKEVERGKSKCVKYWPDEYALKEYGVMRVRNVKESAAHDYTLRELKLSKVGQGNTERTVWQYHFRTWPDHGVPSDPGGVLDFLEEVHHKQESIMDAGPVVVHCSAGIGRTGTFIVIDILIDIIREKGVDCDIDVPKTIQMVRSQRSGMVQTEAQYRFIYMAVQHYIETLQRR
Description: The SHP2-catalyzed hydrolysis of pNPP in the presence of TTN or TTN D-1 was assayed at 25° C. and in the assay buffer described above. The mode of inhibition and K, value were determined in the following manner. At various fixed concentrations of the inhibitor (0-3 Ki), the initial rate at a series of pNPP concentrations was measured by following the production of p-nitrophenol as describe above, ranging from 0.2- to 5-fold the apparent Km values. The data were fitted to appropriate equations using SigmaPlot-Enzyme Kinetics to obtain the inhibition constant and to assess the mode of inhibition.
To further characterize SHP2 inhibition by the TTN and TTN D-1, the IC50 values for TTN and TTN D-1 were measured at a pNPP concentration fixed at the experimentally determined Km for each PTP. […] To establish the mechanism of SHP2 inhibition by TTN and TTN D-1, the inhibition constants and mode of inhibition were determined by steady-state kinetic analysis of the SHP2-catalyzed reaction.

## tautomycetin [TTN]
[1]
  concentration inhibiting human primary T-cell tyrosine phosphorylation: 1 µg/mL
[1]; same value converted
  concentration inhibiting human primary T-cell tyrosine phosphorylation: 1.65 µM
SHP2; Lineweaver-Burk, FIG. 2
  mode of inhibition of the SHP2-catalyzed reaction: competitive inhibitors
SHP2; pNPP, 25° C., pH 7.0
  Ki: 1600 ± 100 nM
